Data on one compound can be found in patent US20250002526A1, “PHARMACEUTICAL COMPOSITION HAVING ANTI-CANCER IMMUNOSTIMULATING EFFECT AND/OR IMMUNE CHECKPOINT INHIBITION POTENTIATING EFFECT” (KYUSHU UNIVERSITY, NATIONAL UNIVERSITY CORPORATION, priority 2021, published 2025).

This test has as its system SULT2B1b-mediated CS production in E0771-SULT cells. In words: CS production inhibitory effect in E0771-SULT cells (LC/MS/MS quantification of CS). The test is classed as cell-based, mouse. To be noted: Mus musculus; for activity at 10 µM: relative to control (100%). The gist of the method:
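Mouse E0771 breast cancer cells expressing SULT2B1b, seeded at 5×10^5 cells/well and cultured 24 h with or without test compound. CS extracted with deuterated internal standards and quantified by LC/MS/MS (ESI, MRM) against calibration curves. Values are % of CS production in untreated cells.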

Where two headings read alike, the source gives them in different places.

The IC50 is the concentration that gives 50% inhibition. `C[C@H](CCC(=O)O)[C@H]1CC[C@H]2[C@@H]3CC=C4C[C@@H](O)CC[C@]4(C)[C@H]3CC[C@]12C` [Compound 1, (R)-4-((3S,8S,9S,10R,13R,14S,17R)-3-hydroxy-10,13-dimethyl-2,3,4,7,8,9,10,11,12,13,14,15,16,17-tetradecahydro-1H-cyclopenta[a]phenanthren-17-yl)pentanoic acid]: the activity at 10 µM by setting is: (24 h, read-out: CS production % activity at 10 μM, E0771-SULT cells, 24 hours, test compound 10 μM (Table 1)) 35.8%; (24 h, read-out: CS production % activity at 10 μM, E0771-SULT cells, 24 hours, third concentration column of Table 1, head again printed 10 μM) 47.1%. Besides, where the note is “24 h, read-out: CS production % activity at 20 μM, E0771-SULT cells, 24 hours, test compound 20 μM, relative to control without compound (100%)”, the activity at 20 µM worked out at 30.8%. For the same compound, under “read-out: IC50 value (CS production)”, the IC50 is 5.8 µM.
